Paper PMC12720774, “Detergents alter the stability and lipid binding properties of the CD1d immunoreceptor” (Protein Science : A Publication of the Protein Society, 2025)
Where “and” joins values, the source holds several entries; their conditions need not be identical. Equal entries are not always repeated. Where two headings read alike, the source gives them in different places.

Columns and labels:
AF647‐labeled hCD1d [1] = target: T1, AF647‐labeled hCD1d (Homo sapiens, UniProt P15813); experiment: Microscale thermophoresis (MST) binding assay
T1 construct: TEV protease cleavage site ENLYFQS (C); BirA biotinylation site (C); His7 (C); made in house; host or cells: TurboCHO cells (GenScript)
T1 sequence (P15813 whole entry, looked up): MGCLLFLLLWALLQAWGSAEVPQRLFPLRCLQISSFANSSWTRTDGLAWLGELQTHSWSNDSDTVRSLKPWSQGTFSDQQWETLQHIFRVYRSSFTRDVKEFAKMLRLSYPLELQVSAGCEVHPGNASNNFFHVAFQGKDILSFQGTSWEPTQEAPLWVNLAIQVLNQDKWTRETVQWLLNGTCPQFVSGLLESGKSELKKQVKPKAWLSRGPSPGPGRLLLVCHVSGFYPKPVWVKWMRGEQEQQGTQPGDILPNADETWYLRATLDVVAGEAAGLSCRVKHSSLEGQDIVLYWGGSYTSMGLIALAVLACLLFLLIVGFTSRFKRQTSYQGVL
Procedure, shortened: (§1)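 hCD1d was NHS-labeled with AF647 (~75% labeling) and held at 100 nM against rising detergent or 18:1 LPC in PBS pH 7.4. Samples were preincubated at 37°C overnight (~12 h) and read at 25°C with 20 s IR-on time. Data are mean ± SD, n = 3.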

AF647‐labeled hCD1d [2] = target: T2, AF647‐labeled hCD1d (Homo sapiens, UniProt P15813+P61769); experiment: Microscale thermophoresis (MST) binding assay
T2 construct: TEV protease cleavage site ENLYFQS (C); BirA biotinylation site (C); His7 (C); made in house; host or cells: TurboCHO cells (GenScript)
T2 sequence (P61769+P15813 fused): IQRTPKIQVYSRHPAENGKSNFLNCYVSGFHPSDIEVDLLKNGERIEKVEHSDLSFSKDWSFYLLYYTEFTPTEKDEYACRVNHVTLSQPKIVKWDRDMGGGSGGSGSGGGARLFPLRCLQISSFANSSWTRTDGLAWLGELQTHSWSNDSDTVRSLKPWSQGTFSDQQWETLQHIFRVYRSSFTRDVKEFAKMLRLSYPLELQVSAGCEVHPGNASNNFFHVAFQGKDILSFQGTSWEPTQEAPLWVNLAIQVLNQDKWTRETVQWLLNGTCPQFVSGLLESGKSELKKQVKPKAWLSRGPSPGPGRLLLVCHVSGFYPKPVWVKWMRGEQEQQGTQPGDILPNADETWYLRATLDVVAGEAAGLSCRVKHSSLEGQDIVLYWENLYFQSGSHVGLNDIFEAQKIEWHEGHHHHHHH
Procedure, shortened: as §1

[3] = approximate, cited from earlier work
hCD1d = hCD1d (Homo sapiens, UniProt P15813+P61769); experiment: Nano differential scanning fluorimetry (nanoDSF) thermal stability; assay type: binding; parameters: TEV protease cleavage site ENLYFQS (C); BirA biotinylation site (C); His7 (C); made in house; host or cells: TurboCHO cells (GenScript); settings: for ΔTm aveage: Figure 5C, nanoDSF, hCD1d with detergent; for ΔT m (NanoDSF): T m difference between hCD1d in the absence and presence of 1000 μM detergent, 1 μM hCD1d; for ΔT m, detergent class summary: approximate; for detergent concentration at which hCD1d appeared to unfold: disappearance of inflection point in ∂(F350/F330)/∂T
Sequence of hCD1d (P61769+P15813 fused): as above

[4] = K D (MST), detergent with 100 nM AF647‐labeled hCD1d, 25°C, apparent
[5] = MST - Kd (uM) average, Figure 5B, detergent binding to hCD1d
[6] = 0.001 M detergent, 100 nM AF647‐hCD1d
[7] = weight/volume, ref Anatrace catalogue
[8] = Figure 5B, detergent binding to hCD1d, read-out: MST - Kd (uM) average
[9] = detergent with 100 nM AF647‐labeled hCD1d, 25°C, apparent, read-out: K D (MST)

SMILES: C[C@H](CCC(=O)NCCC[N+](C)(C)CCCS(=O)(=O)[O-])[C@H]1CC[C@H]2[C@@H]3[C@H](O)C[C@@H]4C[C@H](O)CC[C@]4(C)[C@H]3C[C@H](O)[C@]12C [CHAPS, 3‐((3‐cholamidopropyl) dimethylammonio)‐1‐propanesulfonate]
- Kd (AF647‐labeled hCD1d [1]; [4]): < 200 µM
- Kd (AF647‐labeled hCD1d [1]; [5]): 90.4 µM
- Fnorm (rep 1-3) (AF647‐labeled hCD1d [2]; 3.05176e-8 M detergent): 790.173 ‰ and 791.465 ‰ and 791.791 ‰
- Fnorm (rep 1-3) (AF647‐labeled hCD1d [2]; 6.10352e-8 M detergent): 791.241 ‰ and 791.286 ‰ and 792.264 ‰
- Fnorm (rep 1-3) (AF647‐labeled hCD1d [2]; 1.2207e-7 M detergent): 790.851 ‰ and 791.968 ‰ and 791.334 ‰
- Fnorm (rep 1-3) (AF647‐labeled hCD1d [2]; 2.44141e-7 M detergent): 791.909 ‰ and 789.682 ‰ and 791.374 ‰
- Fnorm (rep 1-3) (AF647‐labeled hCD1d [2]; 4.88281e-7 M detergent): 790.852 ‰ and 792.443 ‰ and 789.72 ‰
- Fnorm (rep 1-3) (AF647‐labeled hCD1d [2]; 9.76563e-7 M detergent): 790.963 ‰ and 791.166 ‰ and 789.816 ‰
- Fnorm (rep 1-3) (AF647‐labeled hCD1d [2]; 1.95313e-6 M detergent): 790.601 ‰ and 790.682 ‰ and 790.374 ‰
- Fnorm (rep 1-3) (AF647‐labeled hCD1d [2]; 3.90625e-6 M detergent): 791.182 ‰ and 790.338 ‰ and 790.7 ‰
- Fnorm (rep 1-3) (AF647‐labeled hCD1d [2]; 7.8125e-6 M detergent): 792.893 ‰ and 791.581 ‰ and 790.149 ‰
- Fnorm (rep 1-3) (AF647‐labeled hCD1d [2]; 1.5625e-5 M detergent): 792.783 ‰ and 794.481 ‰ and 793.14 ‰
- Fnorm (rep 1-3) (AF647‐labeled hCD1d [2]; 3.125e-5 M detergent): 797.777 ‰ and 796.648 ‰ and 796.885 ‰
- Fnorm (rep 1-3) (AF647‐labeled hCD1d [2]; 6.25e-5 M detergent): 802.833 ‰ and 802.212 ‰ and 800.436 ‰
- Fnorm (rep 1-3) (AF647‐labeled hCD1d [2]; 0.000125 M detergent): 807.041 ‰ and 807.203 ‰ and 808.474 ‰
- Fnorm (rep 1-3) (AF647‐labeled hCD1d [2]; 0.00025 M detergent): 810.973 ‰ and 810.93 ‰ and 810.716 ‰
- Fnorm (rep 1-3) (AF647‐labeled hCD1d [2]; 0.0005 M detergent): 814.652 ‰ and 812.289 ‰ and 815.372 ‰
- Fnorm (rep 1-3) (AF647‐labeled hCD1d [2]; [6]): 815.189 ‰ and 817.537 ‰ and 819.368 ‰
- CMC ([3]; ref Anatrace catalogue): 8000 µM
- CMC [3, 7]: 0.49%
- ΔTm aveage (hCD1d): -1.3 °C
- ΔT m (NanoDSF) (hCD1d): −1.3 ± 0.4 °C
- ΔT m, detergent class summary (hCD1d): −1 to −2 °C

SMILES: CCCCCCCCCCCCCCCC[N+](C)(C)C [CTAB, hexadecyltrimethylammonium bromide]
- Kd (AF647‐labeled hCD1d [1]; [4]): 10.9 ± 1.2 µM
- Kd (AF647‐labeled hCD1d [1]; [5]): 10.9 µM
- Fnorm (rep 1-3) (AF647‐labeled hCD1d [2]; 4.88281e-7 M detergent): 812.075 ‰ and 810.216 ‰ and 807.19 ‰
- Fnorm (rep 1-3) (AF647‐labeled hCD1d [2]; 9.76563e-7 M detergent): 814.18 ‰ and 810.332 ‰ and 807.136 ‰
- Fnorm (rep 1-3) (AF647‐labeled hCD1d [2]; 1.95313e-6 M detergent): 814.445 ‰ and 813.166 ‰ and 810.178 ‰
- Fnorm (rep 1-3) (AF647‐labeled hCD1d [2]; 3.90625e-6 M detergent): 815.986 ‰ and 818.175 ‰ and 815.532 ‰
- Fnorm (rep 1-3) (AF647‐labeled hCD1d [2]; 7.8125e-6 M detergent): 824.731 ‰ and 823.149 ‰ and 822.329 ‰
- Fnorm (rep 1-3) (AF647‐labeled hCD1d [2]; 1.5625e-5 M detergent): 835 ‰ and 828.362 ‰ and 831.779 ‰
- Fnorm (rep 1-3) (AF647‐labeled hCD1d [2]; 3.125e-5 M detergent): 849.376 ‰ and 847.531 ‰ and 847.477 ‰
- Fnorm (rep 1-3) (AF647‐labeled hCD1d [2]; 6.25e-5 M detergent): 858.509 ‰ and 854.12 ‰ and 851.197 ‰
- Fnorm (rep 1-3) (AF647‐labeled hCD1d [2]; 0.000125 M detergent): 844.143 ‰ and 841.907 ‰ and 839.82 ‰
- Fnorm (rep 1-3) (AF647‐labeled hCD1d [2]; 0.00025 M detergent): 844.455 ‰ and 843.492 ‰ and 841.952 ‰
- Fnorm (rep 1-3) (AF647‐labeled hCD1d [2]; 0.0005 M detergent): 845.737 ‰ and 843.294 ‰ and 845.557 ‰
- Fnorm (rep 1-3) (AF647‐labeled hCD1d [2]; [6]): 845.54 ‰ and 843.477 ‰ and 843.19 ‰
- CMC ([3]; ref Sigma Aldrich catalogue): 920 µM
- CMC ([3]; weight/volume, ref Sigma Aldrich catalogue): 0.033%
- ΔTm aveage (hCD1d): -14.17 °C
- ΔT m (NanoDSF) (hCD1d): −14.2 ± 0.8 °C
- ΔT m, detergent class summary (hCD1d): −12 to −15 °C
- detergent concentration at which hCD1d appeared to unfold (hCD1d): > 200 µM

SMILES: CCCCCCCCCCCC[N+](C)(C)[O-] [LDAO, lauryldimethylamine‐N‐oxide]
- Kd (AF647‐labeled hCD1d [1]; [8]): 157 µM
- Kd (AF647‐labeled hCD1d [1]; [9]): 157 ± 58.6 µM
- Fnorm (rep 1-3) (AF647‐labeled hCD1d [2]; 3.05176e-8 M detergent): 814.692 ‰ and 814.467 ‰ and 814.489 ‰
- Fnorm (rep 1-3) (AF647‐labeled hCD1d [2]; 6.10352e-8 M detergent): 817.057 ‰ and 815.567 ‰ and 813.955 ‰
- Fnorm (rep 1-3) (AF647‐labeled hCD1d [2]; 1.2207e-7 M detergent): 815.153 ‰ and 815.733 ‰ and 813.219 ‰
- Fnorm (rep 1-3) (AF647‐labeled hCD1d [2]; 2.44141e-7 M detergent): 820.838 ‰ and 814.573 ‰ and 816.312 ‰
- Fnorm (rep 1-3) (AF647‐labeled hCD1d [2]; 4.88281e-7 M detergent): 815.87 ‰ and 817.501 ‰ and 814.61 ‰
- Fnorm (rep 1-3) (AF647‐labeled hCD1d [2]; 9.76563e-7 M detergent): 819.746 ‰ and 816.532 ‰ and 815.008 ‰
- Fnorm (rep 1-3) (AF647‐labeled hCD1d [2]; 1.95313e-6 M detergent): 821.408 ‰ and 818.645 ‰ and 816.968 ‰
- Fnorm (rep 1-3) (AF647‐labeled hCD1d [2]; 3.90625e-6 M detergent): 814.412 ‰ and 819.336 ‰ and 814.062 ‰
- Fnorm (rep 1-3) (AF647‐labeled hCD1d [2]; 7.8125e-6 M detergent): 818.471 ‰ and 817.826 ‰ and 814.305 ‰
- Fnorm (rep 1-3) (AF647‐labeled hCD1d [2]; 1.5625e-5 M detergent): 818.754 ‰ and 820.576 ‰ and 816.619 ‰
- Fnorm (rep 1-3) (AF647‐labeled hCD1d [2]; 3.125e-5 M detergent): 825.871 ‰ and 823.407 ‰ and 821.261 ‰
- Fnorm (rep 1-3) (AF647‐labeled hCD1d [2]; 6.25e-5 M detergent): 827.8 ‰ and 827.022 ‰ and 819.019 ‰
- Fnorm (rep 1-3) (AF647‐labeled hCD1d [2]; 0.000125 M detergent): 840.896 ‰ and 830.059 ‰ and 833.855 ‰
- Fnorm (rep 1-3) (AF647‐labeled hCD1d [2]; 0.00025 M detergent): 853.04 ‰ and 842.052 ‰ and 840.306 ‰
- Fnorm (rep 1-3) (AF647‐labeled hCD1d [2]; 0.0005 M detergent): 856.938 ‰ and 859.889 ‰ and 860.509 ‰
- Fnorm (rep 1-3) (AF647‐labeled hCD1d [2]; [6]): 853.851 ‰ and 856.381 ‰ and 852.289 ‰
- CMC ([3]; ref Anatrace catalogue): 1000 µM
- CMC [3, 7]: 0.023%
- ΔTm aveage (hCD1d): -13.43 °C
- ΔT m (NanoDSF) (hCD1d): −13.4 ± 0.1 °C
- ΔT m, detergent class summary (hCD1d): −12 to −15 °C
- detergent concentration at which hCD1d appeared to unfold (hCD1d): > 200 µM

SMILES: CCCCCCCCO[C@@H]1O[C@H](CO)[C@@H](O)[C@H](O)[C@H]1O [ODG, n‐octyl‐β‐D‐glucopyranoside]
- Kd (AF647‐labeled hCD1d [1]; [8]): 6580 µM
- Kd (AF647‐labeled hCD1d [1]; [9]): 6580 ± 186 µM
- Fnorm (rep 1-3) (AF647‐labeled hCD1d [2]; 9.76563e-7 M detergent): 842.328 ‰ and 845.864 ‰ and 848.262 ‰
- Fnorm (rep 1-3) (AF647‐labeled hCD1d [2]; 1.95313e-6 M detergent): 843.26 ‰ and 846.856 ‰ and 850.006 ‰
- Fnorm (rep 1-3) (AF647‐labeled hCD1d [2]; 3.90625e-6 M detergent): 843.026 ‰ and 843.822 ‰ and 848.605 ‰
- Fnorm (rep 1-3) (AF647‐labeled hCD1d [2]; 7.8125e-6 M detergent): 843.431 ‰ and 845.217 ‰ and 850.155 ‰
- Fnorm (rep 1-3) (AF647‐labeled hCD1d [2]; 1.5625e-5 M detergent): 843.398 ‰ and 846.496 ‰ and 848.167 ‰
- Fnorm (rep 1-3) (AF647‐labeled hCD1d [2]; 3.125e-5 M detergent): 843.251 ‰ and 846.684 ‰ and 848.174 ‰
- Fnorm (rep 1-3) (AF647‐labeled hCD1d [2]; 6.25e-5 M detergent): 844.533 ‰ and 847.002 ‰ and 847.612 ‰
- Fnorm (rep 1-3) (AF647‐labeled hCD1d [2]; 0.000125 M detergent): 844.648 ‰ and 847.89 ‰ and 849.866 ‰
- Fnorm (rep 1-3) (AF647‐labeled hCD1d [2]; 0.00025 M detergent): 846.571 ‰ and 844.204 ‰ and 849.145 ‰
- Fnorm (rep 1-3) (AF647‐labeled hCD1d [2]; 0.0005 M detergent): 846.14 ‰ and 848.026 ‰ and 848.57 ‰
- Fnorm (rep 1-3) (AF647‐labeled hCD1d [2]; [6]): 845.727 ‰ and 847.773 ‰ and 849.553 ‰
- Fnorm (rep 1-3) (AF647‐labeled hCD1d [2]; 0.002 M detergent): 847.311 ‰ and 851.671 ‰ and 850.904 ‰
- Fnorm (rep 1-3) (AF647‐labeled hCD1d [2]; 0.004 M detergent): 852.082 ‰ and 853.968 ‰ and 856.97 ‰
- Fnorm (rep 1-3) (AF647‐labeled hCD1d [2]; 0.008 M detergent): 864.475 ‰ and 866.313 ‰ and 870.655 ‰
- Fnorm (rep 1-3) (AF647‐labeled hCD1d [2]; 0.032 M detergent): 877.078 ‰ and 878.262 ‰ and 882.232 ‰
- CMC ([3]; ref Anatrace catalogue): 18,000 μM
- CMC [3, 7]: 0.53%
- ΔTm aveage (hCD1d): -0.83 °C
- ΔT m (NanoDSF) (hCD1d): −0.8 ± 0.4 °C
- ΔT m (nanoDSF), lipid/hCD1d (hCD1d; absence vs maximum concentration of detergent, 1 μM endo/hCD1d (Figure S10)): −0.2 to −0.8 °C
- ΔT m, detergent class summary (hCD1d): −1 to −2 °C
